Data as given in paper PMC4259414, “HS-133, a novel fluorescent phosphatidylinositol 3-kinase inhibitor as a potential imaging and anticancer agent for targeted therapy” (Oncotarget, 2014).
Read-outs that look alike come from different tables or passages of the source.

Tests used:
[1] = tested on: PI3K/Akt pathway in SkBr3 cells; assay: Western blotting of PI3K/Akt signaling in SkBr3 cells; format: cell-based, human; conditions: SkBr3, 1–50 μM, 6 h
Method: It has been shown that breast tumor cell growth is closely related to the activation of the PI3K/Akt pathway. […] Therefore, we evaluated the effects of HS-133 on the PI3K/Akt pathway in breast cancer cells. The PI3K inhibitory activity of HS-133 was assessed in the SkBr3 cells.
(§1) The cells were washed three times with ice-cold PBS before lysis, and were lysed with a buffer containing 1% Triton X-100, 1% Nonidet P-40 (NP-40), as well as protease and phosphatase inhibitor cocktails (GenDEPOT, Barker, TX). Equal amounts of protein were separated by 10% sodium dodecyl sulfate-polyacrylamide gel electrophoresis (SDS-PAGE) and transferred onto the polyvinylidene fluoride (PVDF) membranes (Millipore, Bedford, MA). Immunostaining was performed by incubating the blots with primary antibodies, followed by horseradish peroxidase (HRP)-conjugated secondary antibody and detected with an enhanced chemiluminescence (ECL) plus system (Amersham Biosciences, Piscataway, NJ). The primary mouse antibodies against the following factors were used: p27 (Cell Signaling Technologies, Danvers, MA), cyclin D1, hypoxia-inducible factor-1α (HIF-1α, BD Biosciences, SanJose, CA), VEGF (Novus Biologicals, Littleton, CO) and β-actin (Abcam, Cambridge, MA). […]

[2] = pharmacokinetic study in mouse; format: in vivo; conditions: plasma, ICR mice; for AUC(0-t): read-out: AUC0–24hr; for half-life: read-out: T1/2, λ (converted)
[3] = tested on: HIF-1α and VEGF in SkBr3 cells; assay: hypoxia-induced HIF-1α and VEGF, Western blotting and ELISA; format: cell-based, human
Method: Since HIF-1α is the major regulator of cellular adaptive responses to hypoxia, we examined the effect of HS-133 on the expression of the HIF-1α in SkBr3 cells. The cells were treated with various concentrations of HS-133 (1–50 μM) under hypoxic mimicking conditions induced by a treatment with 100 μM CoCl2 for 16 h. […] To further determine the effect of HS-133 on hypoxia-induced VEGF, an immediate downstream target gene of HIF-1α, the protein and production of VEGF were measured by western blotting and ELISA in the SkBr3 cells.
as §1, with “NJ).” for “NJ). The primary mouse antibodies against the following factors were used: p27 (Cell Signaling Technologies, Danvers, MA), cyclin D1, hypoxia-inducible factor-1α (HIF-1α, BD Biosciences, SanJose, CA), VEGF (Novus Biologicals, Littleton, CO) and β-actin (Abcam, Cambridge, MA).”
The amount of VEGF secreted into the media was measured by sandwich ELISA. […] The absorbance at 450 nm was measured with a 96-well plate reader.

SkBr3 xenograft = assay: SkBr3 tumor xenograft study; format: in vivo, BALB/c nude mice
Method: We examined the effects of HS-133 using athymic BALB/c nude mice implanted with the SkBr3 cells. HS-133 was injected intratumorally 2 times per week with a dose of 5 mg/kg when tumors reached an average volume of 50–100 mm^3. […] The average tumor volume of HS-133 treated mice was reduced by about 50% compared to that of control mice (Fig. 8D). To assess the general toxicity, we also measured the body weight change in tumor-bearing mice.
To establish SkBr3 tumor xenograft in mice, the SkBr3 cell line was grown in a culture, detached by trypsinization, washed and resuspended in PBS. Six-week old athymic BALB/c nude mice (Central Lab. Animal Inc. Seoul, Korea) were injected with 5 × 10^6 cells in the right flank of each mouse to initiate tumor growth. After reaching a tumor volume of 50–100 mm^3, mice were randomly divided into two groups, each having six mice. Mice in the control group were fed with a 0.2 mL vehicle (DMSO:PEG400:saline = 5:50:45) by oral gavage daily and the second group with 10 mg/kg dose of HS-133 in 0.2 mL daily for 21 days. For intratumoral administration, HS-133 was injected intratumorally with 2 times per week with a dose of 5 mg/kg when tumors reached an average volume of 50–100 mm^3. The body weight and tumor size were recorded twice per week. The tumor size was calculated by 0.5 × long axis × (short axis) ^2. Animal care and experimental procedures were conducted in accordance with the Guide for Animal Experiments by the Korean Academy of Medical Sciences, and the protocols used to this study were approved by the Institutional Animal Care and Use Committee in Inha University Hospital (Approval No. 110802-105).

- Tmax ([2]; ICR, po, 5 mg/kg, p.o. 5 mg/kg): ~4.8 h
- AUC(0-inf) ([2]; iv, i.v. 5 mg/kg): 3410 ng·h/mL
- MRT ([2]; iv, i.v. 5 mg/kg): 8.2 ± 0.8 h
- clearance ([2]; iv, i.v. 5 mg/kg): 24.7 mL/min/kg
- AUC(0-t) ([2]; iv, i.v. 5 mg/kg): 3190 ng·h/mL
- half-life ([2]; iv, i.v. 5 mg/kg): 384 ± 55.2 min
- Vd ([2]; iv, i.v. 5 mg/kg, read-out: Vss): 12 L/kg
- bioavailability ([2]; oral, p.o. vs i.v. 5 mg/kg, read-out: F (bioavailability)): 95.6%
- AUC(0-inf) ([2]; po, p.o. 5 mg/kg): 3260 ng·h/mL
- Cmax ([2]; po, p.o. 5 mg/kg): 236 ± 34 ng/mL
- MRT ([2]; po, p.o. 5 mg/kg): 9.5 ± 1.9 h
- AUC(0-t) ([2]; po, p.o. 5 mg/kg): 3000 ng·h/mL
- half-life ([2]; po, p.o. 5 mg/kg): 366 ± 84 min
SMILES: CC(=O)Nc1ccc(-c2nc3c(c(=O)n(C)c(=O)n3C)n2-c2cccc(F)c2)cc1 [HS-133, N-(4-(7-(3-Fluorophenyl)-1,3-dimethyl-2,6-dioxo-2,3,6,7-tetrahydro-1H-purin-8-yl)phenyl) acetamide]
- phosphorylation of Akt, mTOR, p70S6K and 4E-BP1 [1]: effectively suppressed
- hypoxia-induced HIF-1α expression ([3]; SkBr3, 1–50 μM, 100 μM CoCl2, 16 h): inhibited the hypoxia-induced HIF-1α expression
- hypoxia-induced VEGF expression and production ([3]; SkBr3, CoCl2, Western blotting and ELISA): suppress the VEGF expression and production in a dose-dependent manner
- tumor volume and weight (SkBr3 xenograft; intratumoral 5 mg/kg, 2 times per week, 19 days): remarkably reduced
- reduction of average tumor volume compared to control mice (SkBr3 xenograft; oral 10 mg/kg daily for 21 days): about 50%
- body weight change in tumor-bearing mice (SkBr3 xenograft; same dose, SkBr3 xenograft mice): no significant change
